Tests used:
[1] = system: TNF-α release from whole blood cultures stimulated with LPS; assay: IC50 by TNF alpha production upon stimulation of whole blood cultures with LPS; assay type: cell-based; conditions: human whole blood (buffy coat) culture, 100 ng/ml LPS, 4 hours; read-out: h TNFα IC50
Summary of the method: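 Human buffy coat, diluted with 7 volumes of RPMI/2.5% heat-inactivated FBS, was preincubated with compound (8-point 1:3 series) for 1 h at 37 °C. It was then stimulated with 100 ng/ml LPS (final) for 4 h. Supernatant TNF-α was measured by sandwich ELISA at 450 nm, and IC50 was set between DMSO (0%) and PDE4-inhibitor (100%) controls.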

[2] = target: T1, PDE4B2: full-length human PDE4B2 isozyme (Homo sapiens, UniProt Q07343); assay: PDE4 IC50 determination by Scintillation Proximity Assay (SPA), full-length PDE4B2; assay type: biochemical; conditions: cell lysate, [3H]cAMP SPA
T1 construct: made in house; host or cells: baculovirus infected insect cells (pFastBacHT)
Summary of the method: (§1)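 Unpurified enzyme from cell lysates (PDE4B2 2.5 μl, PDE4D5 0.083 μl of 50% glycerol stock/ml) hydrolysing [3H]cAMP in 50 mM Tris pH 7.5, 8.3 mM MgCl, 1.7 mM EGTA, 0.01% BSA, 30 min at 30 °C. Stopped with yttrium silicate SPA beads in 18 mM ZnSO4; bead-bound [3H]AMP counted. IC50 by non-linear regression.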

[3] = system: TNFα levels in serum of LPS-challenged rats; assay: Rat inhibition studies: serum TNFα after iv LPS challenge; assay type: in vivo; conditions: LPS 0.1 mg/kg iv 2 h after dosing, percent decrease in serum TNFα versus vehicle, read-out: % inhibition r TNFα; for inhibition in vivo at 5 mg/kg: 5 mg/kg po
Description: All studies were done with male rats CD (SD) IGS BR (Crl) (Charles River, France), which were grouped in to 5 animal groups.
At the end of the acclimatization period, the non-fasted rats were weighed, individually identified on the tail with a permanent marker and administered by oral (po) or interperitoneal (ip) route with either vehicle, reference or test compound in a volume of 10 mL/kg adapted to the body weight. The animals were gathered in groups of 5 animals in a polystyrene labeled cage with sawdust covered floors. 2-hours after vehicle, reference or test substance administration, rats received an intravenous (iv) injection of 0.1 mg/kg LPS in a volume of 1 mL/kg of body weight. 2 h after LPS challenge (or as indicated in Tables 3B and 4B), blood samples were collected into tubes without anticoagulant by retro-orbital puncture under gas (isoflurane) anesthesia. Samples were allowed to clot at room temperature for 5 to 10 min then put on ice until there were prepared by centrifugation (6000×g for 3 min at 4° C.) and stored at −20° C. until use. TNFα levels were measured in serum samples in duplicate by ELISA technique according to the manufacturer's procedure (Rat TNFα kit Quantikine M (RTA00, R&D System, France)). Data are reported as percent decrease in observed TNFα levels versus TNFα levels observed for vehicle dosed animal groups.

[4] = target: T2, PDE4D5: full-length human PDE4D5 isozyme (Homo sapiens, UniProt Q08499); assay: PDE4 IC50 determination by Scintillation Proximity Assay (SPA), full-length PDE4D5; assay type: biochemical; conditions: cell lysate, [3H]cAMP SPA
T2 construct: made in house; host or cells: baculovirus infected insect cells (pFastBacHT)
Summary of the method: as §1

[5] = target: T3, PDE4B: catalytic domain of human PDE4B from S152-S528 (Homo sapiens, UniProt Q07343); assay: PDE4 IC50 determination by Scintillation Proximity Assay (SPA), PDE4B catalytic domain; assay type: biochemical; conditions: [3H]cAMP SPA, 30 min at 30° C.
T3 construct: The catalytic domain of human PDE4B from S152-S528; His6 (N, cleaved yes); thrombin cleavage site (N, cleaved yes); made in house; host or cells: E. coli BL21 (DE3) RIL
Summary of the method: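 Human PDE4B catalytic domain (80 ng/ml) hydrolysed [3H]cAMP in 50 mM Tris pH 7.5, 8.3 mM MgCl, 1.7 mM EGTA, 0.01% BSA for 30 min at 30 °C. Reaction was stopped with yttrium silicate SPA beads in 18 mM ZnSO4, and bound [3H]AMP was counted by scintillation. IC50 came from non-linear regression.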

T2 sequence (Q08499 with tags, fused parts or gaps isoform Q08499-6): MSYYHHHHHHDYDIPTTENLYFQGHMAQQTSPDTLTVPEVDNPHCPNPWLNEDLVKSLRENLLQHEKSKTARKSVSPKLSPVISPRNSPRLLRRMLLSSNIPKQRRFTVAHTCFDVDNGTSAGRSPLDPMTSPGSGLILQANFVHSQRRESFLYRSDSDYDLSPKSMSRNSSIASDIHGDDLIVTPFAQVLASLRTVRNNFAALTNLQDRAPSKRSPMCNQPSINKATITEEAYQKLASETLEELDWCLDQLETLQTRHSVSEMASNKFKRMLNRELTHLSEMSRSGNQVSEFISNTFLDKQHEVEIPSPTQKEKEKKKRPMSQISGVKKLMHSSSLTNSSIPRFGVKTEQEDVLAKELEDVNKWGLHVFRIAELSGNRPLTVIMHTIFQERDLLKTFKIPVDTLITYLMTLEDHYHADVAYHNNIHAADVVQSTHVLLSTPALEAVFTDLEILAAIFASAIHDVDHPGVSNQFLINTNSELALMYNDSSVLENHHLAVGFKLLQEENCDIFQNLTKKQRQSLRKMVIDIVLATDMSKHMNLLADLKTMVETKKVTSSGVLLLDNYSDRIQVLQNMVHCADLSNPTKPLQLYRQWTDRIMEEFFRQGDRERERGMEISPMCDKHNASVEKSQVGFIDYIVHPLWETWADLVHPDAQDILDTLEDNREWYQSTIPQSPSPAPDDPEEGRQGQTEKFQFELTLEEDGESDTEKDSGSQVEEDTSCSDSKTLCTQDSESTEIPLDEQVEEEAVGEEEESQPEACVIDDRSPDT
T3 sequence (Q07343 324-700): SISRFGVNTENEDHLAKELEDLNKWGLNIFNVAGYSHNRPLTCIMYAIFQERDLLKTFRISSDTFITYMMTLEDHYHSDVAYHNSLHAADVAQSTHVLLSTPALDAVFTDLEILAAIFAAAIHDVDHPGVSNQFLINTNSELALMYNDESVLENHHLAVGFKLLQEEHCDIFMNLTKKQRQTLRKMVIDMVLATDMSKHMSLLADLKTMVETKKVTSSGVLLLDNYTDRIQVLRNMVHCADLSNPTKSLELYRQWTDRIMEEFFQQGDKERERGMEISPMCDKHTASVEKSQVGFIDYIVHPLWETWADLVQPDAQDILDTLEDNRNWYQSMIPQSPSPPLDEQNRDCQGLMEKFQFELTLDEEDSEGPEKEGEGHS
T1 sequence (Q07343 with tags, fused parts or gaps isoform Q07343-2): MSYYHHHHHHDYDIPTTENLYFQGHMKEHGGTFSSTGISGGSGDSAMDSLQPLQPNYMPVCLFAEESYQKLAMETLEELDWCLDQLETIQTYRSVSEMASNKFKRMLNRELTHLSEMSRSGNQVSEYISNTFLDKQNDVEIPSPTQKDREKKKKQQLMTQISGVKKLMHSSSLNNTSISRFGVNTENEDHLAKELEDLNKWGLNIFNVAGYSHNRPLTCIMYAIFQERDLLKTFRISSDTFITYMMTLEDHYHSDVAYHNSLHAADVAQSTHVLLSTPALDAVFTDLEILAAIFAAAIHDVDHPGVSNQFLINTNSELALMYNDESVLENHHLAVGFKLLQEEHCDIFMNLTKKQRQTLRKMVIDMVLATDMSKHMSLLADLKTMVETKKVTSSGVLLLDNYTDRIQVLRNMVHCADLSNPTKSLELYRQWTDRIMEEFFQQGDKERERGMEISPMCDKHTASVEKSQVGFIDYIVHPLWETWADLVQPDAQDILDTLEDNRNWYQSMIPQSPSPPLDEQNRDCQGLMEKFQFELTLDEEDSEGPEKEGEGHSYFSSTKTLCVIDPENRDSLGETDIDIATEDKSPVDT

Compound | IC50 [1] [µM] | IC50 [2] [µM] | inhibition in vivo at 5 mg/kg [3] [%] | IC50 [4] [µM] | IC50 [5] [µM] | inhibition in vivo at 50 mg/kg ([3]; 50 mg/kg po or ip) [%]
CCOc1ccc2ccccc2c1C(=O)n1ccc2c(-c3ccc(OC)c(OC)c3)ccnc21 [Compound 48, [4-(3,4-Dimethoxy-phenyl)-pyrrolo[2,3-b]pyridin-1-yl]-(2-ethoxy-naphthalen-1-yl)-methanone] | ≤ 10 | < 10 | ≥ 20 | < 10 | < 10 | 
CCOc1ccccc1C(=O)n1ccc2cc(-c3ccc(OC)c(OC)c3)cnc21 [Compound 83, [5-(3,4-Dimethoxy-phenyl)-pyrrolo[2,3-b]pyridin-1-yl]-(2-ethoxy-phenyl)-methanone] | ≤ 10 | < 10 | ≥ 20 | < 10 | < 10 | 
COc1ccc(-c2cn(S(=O)(=O)c3cccc4cccnc34)c3ncccc23)cc1OC [Compound 7, 8-[3-(3,4-dimethoxy-phenyl)-pyrrolo[2,3-b]pyridine-1-sulfonyl]-quinoline] | ≤ 10 | < 10 |  | < 10 | < 10 | ≥ 20
COc1ccc(-c2ccnc3c2ccn3S(=O)(=O)c2cccc3cccnc23)cc1OC [Compound 126, 8-[4-(3,4-Dimethoxy-phenyl)-pyrrolo[2,3-b]pyridine-1-sulfonyl]-quinoline] | ≤ 10 | < 10 | ≥ 20 | < 10 | < 10 | 
COc1ccc(-c2cn(C(=O)c3ccccc3OC(C)=O)c3ncccc23)cc1OC [Compound 110, Acetic acid 2-[3-(3,4-dimethoxy-phenyl)-pyrrolo[2,3-b]pyridine-1-carbonyl]-phenyl ester] | ≤ 10 | < 10 | ≥ 20 | < 10 | < 10 | 

Reference: patent US7605168B2 (Plexxikon, Inc., priority 2004, dated 2009)
